Measurements published in US9693997B2, “Antiviral compounds” (priority 2013, dated 2017).

What was measured:
[1] = test system: pseudotyped VSV G particles (VSVpp) in Huh7-high CD81 cells; assay: microbe, parasite or virus in culture; assay type: cell-based, vesicular stomatitis virus; details: Vesicular stomatitis virus, 72 h, read-out: VSVpp (EC50, μM)
[2] = test system: Pseudotyped HCV GT1b particles (HCVpp), entry into Huh7-high CD81 cells; assay: microbe, parasite or virus in culture; assay type: cell-based, HCV GT1b Con1 strain; details: Hepatitis C virus, GT1B, 72 h, read-out: HCVpp GT-1b (EC50, μM)

| SMILES | EC50 [1] | EC50 [2] |
| --- | --- | --- |
| COc1ccc(-c2c(Cl)cc(Nc3n[nH]c(N)n3)cc2C(F)(F)F)cc1S(=O)(=O)C(C)C [Compound 19, N*3*-[2-Chloro-4′-methoxy-3′-(propane-2-sulfonyl)-6-trifluoromethyl-biphenyl-4-yl]-1H-[1,2,4]triazole-3,5-diamine] | > 10 µM | 0.049 µM |
| CC1(C)CS(=O)(=O)c2cc(-c3c(Cl)cc(Nc4n[nH]c(N)n4)cc3Cl)ccc2O1 [Compound 52, N*3*-[3,5-Dichloro-4-(2,2-dimethyl-4,4-dioxo-3,4-dihydro-2H-4lambda*6*-benzo[1,4]oxathiin-6-yl)-phenyl]-1H-[1,2,4]triazole-3,5-diamine] | > 10 µM | 0.64 µM |
| COCCOc1ccc(-c2c(Cl)cc(Nc3n[nH]c(N)n3)cc2Cl)cc1 [Compound 278, N*3*-[2,6-Dichloro-4′-(2-methoxy-ethoxy)-biphenyl-4-yl]-1H-[1,2,4]triazole-3,5-diamine] | 5.31 µM | 0.264 µM |
| Nc1nc(Nc2ccc(-c3ccccc3Cl)c(C(F)(F)F)c2)n[nH]1 [Compound 153, N*3*-(2′-Chloro-2-trifluoromethyl-biphenyl-4-yl)-1H-[1,2,4]triazole-3,5-diamine] | 9.61 µM | 1.81 µM |
| Nc1nc(Nc2ccc(-c3ccccc3F)c(Cl)c2)n[nH]1 [Compound 146, N*3*-(2-Chloro-2′-fluoro-biphenyl-4-yl)-1H-[1,2,4]triazole-3,5-diamine] | 29.4 µM | 2.88 µM |
| CC1(C)OCC(COc2ccc(-c3c(Cl)cc(Nc4n[nH]c(N)n4)cc3Cl)cc2)O1 (centres unmarked) [Compound 274, N*3*-[2,6-Dichloro-4′-(2,2-dimethyl-[1,3]dioxolan-4-ylmethoxy)-biphenyl-4-yl]-1H-[1,2,4]triazole-3,5-diamine] | 34.1 µM | 0.121 µM |
| CNS(=O)(=O)c1ccc(-c2c(F)cc(Nc3nc(N)n[nH]3)cc2C(F)(F)F)cc1 [Compound 72, 4′-(5-Amino-2H-[1,2,4]-triazol-3-ylamino)-6′-fluoro-2′-trifluoromethyl-biphenyl-4-sulfonic acid methylamide] | > 10 µM | 0.154 µM |
| CS(=O)(=O)c1ccc(-c2c(Cl)cc(Nc3n[nH]c(N)n3)cc2Cl)cc1F [Compound 121, N-3-(2,6-Dichloro-3′-fluoro-4′-methanesulfonyl-biphenyl-4-yl)-1H-[1,2,4]triazole-3,5-diamine] | 0.08 µM | 0.068 µM |
| Nc1nc(Nc2cc(Cl)c(-c3ccc(OCC(=O)O)cc3)c(Cl)c2)n[nH]1 [Compound 285, [4′-(5-Amino-1H-[1,2,4]triazol-3-ylamino)-2′,6′-dichloro-biphenyl-4-yloxy]-acetic acid] | > 10 µM | 4.97 µM |
| Nc1nc(Nc2cc(Cl)c(-c3ccc(C(=O)O)cc3)c(C(F)(F)F)c2)n[nH]1 [Compound 202, 4′-(5-amino-1H-1,2,4-triazol-3-ylamino)-2′-chloro-6′-(trifluoromethyl)biphenyl-4-carboxylic acid 2,2,2-trifluoroacetate] | > 10 µM | 1.25 µM |
| CN(C)S(=O)(=O)c1ccc(-c2c(F)cc(Nc3nc(N)n[nH]3)cc2C(F)(F)F)cc1 [Compound 75, 4′-(5-Amino-2H-[1,2,4]-triazol-3-ylamino)-6′-fluoro-2′-trifluoromethyl-biphenyl-4-sulfonic acid dimethylamide] | 12.6 µM | 0.164 µM |
| Nc1nc(Nc2ccc(-c3ccccc3F)c(C(F)(F)F)c2)n[nH]1 [Compound 150, N*3*-(2′-Fluoro-2-trifluoromethyl-biphenyl-4-yl)-1H-[1,2,4]triazole-3,5-diamine] | 21.3 µM | 0.866 µM |
| CC(C)(C)OC(=O)NCCOc1ccc(-c2c(Cl)cc(Nc3n[nH]c(N)n3)cc2C(F)(F)F)cc1 [Compound 134, {2-[4′-(5-Amino-1H-[1,2,4]triazol-3-ylamino)-6′-chloro-2′-trifluoromethyl-biphenyl-4-yloxy]-ethyl}-carbamic acid tert-butyl ester] | > 10 µM | 0.081 µM |
